What was measured:
type II sPLA2 = molecular target: T1, type II sPLA2 (Homo sapiens, UniProt P14555); assay: Inhibition test of human secretory phospholipase A2, chromogenic assay, type II enzyme; format: biochemical; settings: Inhibitory activity of type II sPLA2
T1 sequence (P14555 21-144): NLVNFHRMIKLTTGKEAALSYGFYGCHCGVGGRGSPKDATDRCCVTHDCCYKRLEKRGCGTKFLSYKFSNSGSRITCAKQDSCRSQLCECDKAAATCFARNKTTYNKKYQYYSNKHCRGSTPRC
Source text: In order to identify and evaluate an inhibitor of recombinant human secretory phospholipase A2, the following chromogenic assay is utilized. The assay herein has been applied for high volume screening wherein 96 well microtiterplate is used. A general explanation for such assay is described in “Analysis of Human Synovial Fluid Phospholipase A2 on Short Chain Phosphatidylcholine-Mixed Micelles: Development of a Spectrophotometric Assay Suitable for a Microtiterplate Reader” (Analytical Biochemistry, 204, pp 190-197, 1992 by Laure. J. Reynolds. Lori L. Hughes and Edward A. Dennis: the disclosure of which is incorporated herein for reference.
Type II enzyme: 1 mg of sPLA2 is dissolved in 1 ml of an enzyme buffer. Thereafter, the solution is maintained at 4° C. In the assay, 5 μl of the solution is diluted with 1995 μl of the reaction buffer to be used.
1) 0.106 ml of the substrate solution is put in a centrifugal tube, and nitrogen gas is jetted to remove the solvent. 0.54 ml of Triton-X 100 is added thereto, the mixture is stirred, thereafter it is sonified in a bath type sonification to dissolve. To the resulting product are added 17.8 ml of the reaction buffer and 0.46 ml of DTNB, and 0.18 ml each of the admixture is poured to wells of the 96 well microtiterplate.
2) 10 μl of a test compound (or solvent blank) are added in accordance with alignment of plates which has been previously set.
3) Incubation is effected at 40° C. for 15 minutes.
4) 90 ng/well in case of human type I enzyme, 50 ng/well in case of human type II enzyme, 40 μl/well in case of human type V enzyme, 15 μl/well in case of human type X enzyme were reacted.
5) Changes in absorbancy for 30 minutes for humane type I, type II, and type X enzyme and for 45 min for human type V enzyme, are measured by a plate reader, and inhibition activity was calculated (OD: 405 nm).
6) IC50 was determined by plotting log concentration with respect to inhibition values within 10% to 90% inhibiting range.

Row | IC50 (type II sPLA2) | melting point | Structure (SMILES)
1 | 34 nM | – | NC(=O)C(=O)c1c2c(n3ccnc(OCC(=O)O)c13)C(c1ccccc1)=CCC2 [Compound I-14]
2 | 5680 nM | – | COC(=O)COc1cccn2c1c(C(=O)C(N)=O)c1scc(-c3ccccc3)c12 [Compound I-11]
3 | 45 nM | 228 to 230 °C (dec.) | NC(=O)C(=O)c1c2c(n3cccc(OCC(=O)O)c13)C(c1ccccc1)=CCC2 [Compound I-2]
4 | 789 nM | 225 to 227 °C (dec.) | COC(=O)COc1cccn2c3c(c(C(=O)C(N)=O)c12)CCC=C3c1ccccc1 [Compound I-1]
5 | 262 nM | – | NC(=O)C(=O)c1c2c(n3cccc(OCC(=O)O)c13)C(c1ccccc1)N(C(=O)C(F)(F)F)CC2 (stereo not drawn) [Compound I-8]
6 | 54 nM | – | NC(=O)C(=O)c1c2c(n3cccc(OCC(=O)O)c13)C(c1ccccc1)CCC2 (stereo not drawn) [Compound I-4]
7 | 1590 nM | 198 to 199 °C | COC(=O)COc1cccn2c3c(c(C(=O)C(N)=O)c12)CCCC3c1ccccc1 (stereo not drawn) [Compound I-3]
8 | 178 nM | – | NC(=O)C(=O)c1c2scc(-c3ccccc3)c2n2cccc(OCC(=O)O)c12 [Compound I-12]
9 | 4570 nM | – | CC(=O)N1CCc2c(C(=O)C(N)=O)c3c(OCC(=O)O)cccn3c2C1c1ccccc1 (stereo not drawn) [Compound I-6]
